Assay results as given in publication PMC2759517 (PLoS ONE, 2009).

Test system: PA-HA from several FluA strains
Type: binding, influenza A virus

With `CC[C@H](C)[C@H](NC(=O)[C@H](C)NC(=O)[C@H](CC(N)=O)NC(=O)[C@H](CCC(N)=O)NC(=O)[C@H](C)NC(=O)[C@@H]1CCCN1C(=O)[C@@H](NC(=O)[C@H](CCCCN)NC(=O)[C@H](CC(C)C)NC(=O)[C@H](Cc1ccccc1)NC(=O)[C@H](CC(C)C)NC(=O)[C@H](CC(C)C)NC(=O)[C@@H](NC(=O)[C@@H]1CCCN1C(=O)[C@H](CC(N)=O)NC(=O)[C@@H](NC(=O)[C@H](CC(=O)O)NC(=O)[C@@H](N)CCSC)C(C)C)[C@@H](C)O)C(C)C)C(=O)N[C@@H](CO)C(=O)N[C@H](C(=O)N[C@H](C(=O)N[C@@H](Cc1ccccc1)C(=O)N1CCC[C@H]1C(=O)N[C@@H](Cc1ccc(O)cc1)C(=O)N[C@H](C(N)=O)[C@@H](C)O)[C@@H](C)O)[C@@H](C)O` [PB1_1–25A] the “Binding of FluA PA-HA to immobilized peptide” value was “bound”.
